For data set [1], the system named is TNF-α. Briefly: Synthesis of TNF-α induced in Sprague-Dawley rats by LPS from Escherichia coli. The data set is classed as in vivo. Conditions: male Sprague-Dawley rats, oral administration; LPS i.v. 0.1 mg/Kg two hours later; serum TNF-α 1.5 hours after LPS. As to the method:
The test products are administered orally to groups of ten male Sprague-Dawley rats weighing about 200 grams. Two hours later, LPS is administered intravenously (0.1 mg/Kg). The blood of each animal is collected 1.5 hours after the LPS administration. The samples are centrifuged, and the serum is recovered and frozen at −80° C. The TNF-α is measured using commercial kits (RPN 2744 Amersham, UK).

For data set [2], the system named is TNF-α. In words: Synthesis of TNF-α induced in Balb/c mice by LPS from Escherichia coli. The data set is classed as in vivo. Conditions: female Balb/c mice, oral administration; LPS i.v. 10 μg/mouse one hour later; plasma TNF-α 1.5 hours after LPS. On the procedure: The test products are administered orally to groups of five 7- to 8-week-old female Balb/c mice (Charles River, France). One hour later, LPS is administered intravenously (10 μg/mouse). The blood of each animal is collected 1.5 hours after the LPS administration. The samples are centrifuged, and the plasma is recovered and frozen at −80° C. The TNF-α is measured using commercial kits (R & D, Abingdon, UK).

Data set [3] relates to Zymosan-induced knee joint inflammation / hyperalgesia. In words: Model of joint inflammation: Zymosan-induced knee joint inflammation, secondary hyperalgesia (plantar test). The data set is classed as in vivo. Conditions: male hamster, 1 ng/joint injected into the joint one hour before first Zymosan injection; 3 Zymosan injections; measured from 4 hours and during following 3 weeks. On the procedure: The compounds of the invention are tested in a model of joint inflammation.
The compound (1 ng/joint as a suspension in 10 μL of a solution of 2% PVP (polyvinylpyrrolidone)/1% lutrol F68/0.9% NaCl) according to the invention is injected one hour before the first injection of Zymosan® (see below) into the joint of a hamster.
Induction of a knee joint inflammation: Under light anaesthesia using isofluran, a suspension of Zymosan® at a dose of 100 μg in 10 μL of saline solution is injected into the knee joint of a male hamster. Zymosan® is a yeast extract which produces a strong dose-dependent inflammation when subcutaneously injected. Under the experimental conditions described herein (injection into the knee joint), it induces a hyperalgesia lasting for a week. In order to extend this period, 3 consecutive injections of Zymosan® were applied. The lag time to paw withdrawal, following exposure of the plantar skin to a defined heat stimulus, is measured using apparatus (Plantar Test Ugo Basile Biological Research Apparatus, Comerio, Italy) comprising a mini-camera to ensure the correct positioning of the infrared ray below the hind leg of interest.
Measurement of Secondary Hyperalgesia:
The timer, which measures the length of time the infrared light is reflected by the hind leg, is started by the investigator and stops automatically as soon as the animal shakes or pulls away its leg. […]

Data set [4] relates to tactile allodynia after spare nerve injury. In words: Model of neuropathic pain: anti-allodynic effect in the spare nerve injury (SNI), von Frey test. The data set is classed as in vivo. Conditions: male C57B6 mice, 7 days after surgery, 1 mg/kg i.v., from 1 h to 6 h after administration. As to the method: The compounds of the invention are also tested in a model of neuropathic pain: measurement of the anti-allodynic effect in the spare nerve injury (SNI).
In this in vivo model of mice suffering from chronic neuropathic pain, the effect on tactile allodynia, a painful sensation induced after a mechanical stimulus not normally painful, is triggered in the hind leg by surgical lesion of the great sciatic nerve. It is then determined by measuring the paw withdrawal threshold (PWT), i.e. the applied force (expressed in grams) at which the mouse withdraws its hind leg.
Tactile allodynia is determined on both hind legs, i.e. homolaterally and controlaterally to the lesion determined following surgery, with the automatic von Frey test, in which the plantar skin of the hind legs is exposed to a pressure stimulus of increasing intensity reaching 5 grams, using a discharge needle prod. […]
Trial groups using the compounds according to the invention and a control group of animals were used, each being composed of four male C57B6 mice. In each group, the baseline of the PWT values (BL) was determined before surgery. […]
7 days after surgery, just before the administration of the compound, i.e. at 0 h, and in all the groups, the PWT values were determined for the homolateral hind leg (injured) and the controlateral hind leg (non-injured). […]

Each structure is given as a SMILES string.

In the case of `CCCCCCc1cc(CCN2CCN(c3cccc(C(F)(F)F)c3)CC2)ccc1C.Cl`, the melting point (as a rule, the temperature of the solid-liquid transition) is 187 °C. For the molecule `CCCCCc1cc(CCN2CCN(c3ccc(C(F)(F)F)cn3)CC2)ccc1C.Cl.Cl`, the melting point was over 212 °C. On to `CCCCCc1cc(CCN2CCN(c3cccc(C)c3)CC2)ccc1C.Cl.Cl`, for which the melting point lay within 226 to 228 °C.

With `CCCCCc1cc(CCN2CCN(c3cccc(C(F)F)c3)CC2)ccc1C.Cl` [compound 8, 1-(3-difluoromethylphenyl)-4-[2-(4-methyl-3-pentylphenyl)-ethyl]piperazine hydrochloride], the melting point lay within 182 to 185 °C. In addition, the “IC50, inhibiting the synthesis of TNF-α” value in data set [1] stood at 1 mg/kg. As to `CCCCCc1cc(CCN2CCN(c3ccc(Cl)cc3)CC2)ccc1C.Cl`, the melting point turned out to be 203 °C. Consider `CCCCCc1cc(CCN2CCN(c3ccc(F)cc3)CC2)ccc1C.Cl.Cl`, for which the melting point is over 201 °C. Take `CCCCCc1cc(CCN2CCN(c3cccc(C(F)F)c3)CC2)ccc1OC.Cl`: the melting point was 125 to 128 °C. The molecule `CCCCCc1cc(CCN2CCN(c3ccc(Br)cn3)CC2)ccc1C.Cl.Cl` had a melting point of 190 to 192 °C. With `CCCCCc1cc(CCN2CCN(c3cccc(Br)n3)CC2)ccc1C.Cl`, the melting point is 185 to 187 °C. For the molecule `CCCc1cc(CCN2CCN(c3cccc(C(F)(F)F)c3)CC2)ccc1C.Cl`, the melting point fell in the range of 198 to 200 °C. Regarding `CCCCCCCc1cc(CCN2CCN(c3cccc(C(F)(F)F)c3)CC2)ccc1C.Cl`, the melting point lay in the range of 190 to 192 °C. Take `CCCCCc1cc(CCN2CCN(c3ccccc3Cl)CC2)ccc1C.Cl`: the melting point fell in the range of 200 to 202 °C. `CCCCCc1cc(CCN2CCN(c3ccccn3)CC2)ccc1C.Cl.Cl`: the melting point lay in the range of 183 to 185 °C.

For the molecule `CCCCCc1cc(CCN2CCN(c3ccccc3C)CC2)ccc1C.Cl`, the melting point is 220 to 222 °C. Take `CCCCCc1cc(CCN2CCN(c3cccc(F)c3)CC2)ccc1OC.Cl`: the melting point is 174 to 177 °C. For the molecule `CCCCCc1cc(CCN2CCN(c3cccc(C(F)(F)F)c3)CC2)ccc1C.O=C(O)CCC(=O)O` [compound 38, 1-(3-trifluoromethylphenyl)-4-[2-(4-methyl-3-pentyl-phenyl)ethyl]piperazine succinate], the “IC50, inhibiting the synthesis of TNF-α” value in data set [2] turned out to be 0.1 mg/kg.

For `CCCCCc1cc(CCN2CCN(c3ccc(OCC)cc3)CC2)ccc1C.Cl.Cl`, the melting point was 228 to 230 °C. `CCCCCc1cc(CCN2CCN(c3cccc(C(F)(F)F)n3)CC2)ccc1C.Cl` showed a melting point of 161 to 163 °C. Take `CCCCCc1cc(CCN2CCN(c3cccc(C(F)(F)F)c3)CC2)ccc1OC.Cl`: the melting point fell in the range of 146 to 149 °C. `CCCCCc1cc(CCN2CCN(c3cccc(OC(F)(F)F)c3)CC2)ccc1C.Cl` came in with a melting point of 197 to 200 °C. Consider `CCCCCCCc1cc(CCN2CCN(c3cccc(C(F)(F)F)c3)CC2)ccc1OC.Cl`, for which the melting point was determined as 214 °C. `CCCCCc1cc(CCN2CCN(c3cccc(OC)c3)CC2)ccc1C.Cl` gave a melting point of 199 to 201 °C. The same measure, in the same setting: in the case of `CCCc1cc(CCN2CCN(c3cccc(C(F)(F)F)c3)CC2)ccc1OC.Cl` it was 184 to 185 °C; in that of `CCCCCc1cc(CCN2CCN(c3ccc(C(C)(C)C)cc3)CC2)ccc1C.Cl`, 193 to 195 °C. The molecule `CCCCCc1cc(CCN2CCN(c3ccccc3)CC2)ccc1C.Cl` registered a melting point of 200 to 202 °C. In turn, `CCCCCc1cc(CCN2CCN(c3ccc(Cl)cn3)CC2)ccc1C.Cl` came in with a melting point of 199 to 201 °C. In the case of `CCCCCc1cc(CCN2CCN(c3cccc(C(F)(F)F)c3)CC2)ccc1C.CCCCCc1cc(CCN2CCN(c3cccc(C(F)(F)F)c3)CC2)ccc1C.O=C(O)c1cc2ccccc2c(Cc2c(O)c(C(=O)O)cc3ccccc23)c1O` [compound 1, 1-(3-trifluoromethylphenyl)-4-[2-(4-methyl-3-pentylphenyl)ethyl]piperazine hemipamoate], in data set [3], the “reduction of pain (lag time to leg withdrawal, secondary hyperalgesia)” value is listed as “effective reduction of pain over a 3-week period”. The “IC50, inhibiting the synthesis of TNF-α” value in data set [1] came out at 0.3 mg/kg. The “reduction of pain (anti-allodynic effect, paw withdrawal threshold PWT)” value in data set [4] is “statistically significant reduction of pain”. Molecule `CCCCCc1cc(CCN2CCN(c3cccc(F)c3)CC2)ccc1C.Cl` [compound 4, 1-(3-fluorophenyl)-4-[2-(4-methyl-3-pentylphenyl)ethyl]-piperazine hydrochloride] gave a melting point of 215 to 217 °C. For the same molecule, the “IC50, inhibiting the synthesis of TNF-α” value in data set [1] amounted to 1 mg/kg.

Values taken from US8153637B2, “Phenyl-alkyl piperazines having TNF-modulating activity, preparation method, and therapeutic use thereof” (Sanofi, priority 2008, dated 2012).
